# Data published in patent US9695155B2, “Herbicidal substituted pyrimidinyloxy benzene compounds” (E. I. DU PONT DE NEMOURS AND COMPANY, priority 2013, dated 2017).
# Key:
# [1] = tested on: Heteranthera limosa; experiment: Test B flooded paddy test; type: in vivo; details: Flood, 250 g ai/ha; 0 to 100 scale where 0 is no effect and 100 is complete control
# Description: (§1) Plant species in the flooded paddy test selected from rice (Oryza sativa), sedge, umbrella (small-flower umbrella sedge, Cyperus difformis), (Heteranthera limosa), and barnyardgrass (Echinochloa crus-galli) were grown to the 2-leaf stage for testing. At time of treatment, test pots were flooded to 3 cm above the soil surface, treated by application of test compounds directly to the paddy water, and then maintained at that water depth for the duration of the test. Treated plants and controls were maintained in a greenhouse for 13 to 15 days, after which time all species were compared to controls and visually evaluated. Plant response ratings, summarized in Table B, are based on a scale of 0 to 100 where 0 is no effect and 100 is complete control. A dash (-) response means no test result.
# [2] = tested on: rice; experiment: Test B flooded paddy test; type: in vivo, Oryza sativa; details: Flood, 250 g ai/ha; 0 to 100 scale where 0 is no effect and 100 is complete control
# Description: as §1
# [3] = tested on: barnyardgrass; experiment: Test B flooded paddy test; type: in vivo, Echinochloa crus-galli; details: Flood, 250 g ai/ha; 0 to 100 scale where 0 is no effect and 100 is complete control
# Description: as §1
# [4] = tested on: large (Lg) crabgrass; experiment: Test A postemergence; type: in vivo, Digitaria sanguinalis
# In short: (§2)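 Pre- and postemergence greenhouse screen. Soil: loam + sand. Spray carrier: solvent mixture, non-phytotoxic, with surfactant. Post timing at 1–2 leaves, height 2–10 cm. Readout: visual injury on a 0–100 scale roughly 10 days after application, untreated plants as reference.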
# [5] = tested on: large (Lg) crabgrass; experiment: Test A preemergence; type: in vivo, Digitaria sanguinalis; details: for Plant response rating, Crabgrass, Large: 125 g ai/ha, 0 to 100 scale where 0 is no effect and 100 is complete control; for Crabgrass, Large plant response rating: 500 g ai/ha, 0 to 100 scale, 0 no effect, 100 complete control, approx. 10 days
# Source text: (§3) Seeds of plant species selected from barnyardgrass (Echinochloa crus-galli), kochia (Kochia scoparia), ragweed (common ragweed, Ambrosia elatior), Italian ryegrass (Lolium multiflorum), large (Lg) crabgrass (Digitaria sanguinalis), giant foxtail (Setaria faberii), morningglory (Ipomoea spp.), pigweed (Amaranthus retroflexus), velvetleaf (Abutilon theophrasti), wheat (Triticum aestivum), and corn (Zea mays) were planted into a blend of loam soil and sand and treated preemergence with a directed soil spray using test chemicals formulated in a non-phytotoxic solvent mixture which included a surfactant.
# (§4) At the same time, plants selected from these crop and weed species and also blackgrass (Alopecurus myosuroides), and galium (catchweed bedstraw, Galium aparine) were planted in pots containing the same blend of loam soil and sand and treated with postemergence applications of test chemicals formulated in the same manner. Plants ranged in height from 2 to 10 cm and were in the one- to two-leaf stage for the postemergence treatment. Treated plants and untreated controls were maintained in a greenhouse for approximately 10 days, after which time all treated plants were compared to untreated controls and visually evaluated for injury. Plant response ratings, summarized in Table A, are based on a 0 to 100 scale where 0 is no effect and 100 is complete control. A dash (-) response means no test result.
# [6] = tested on: pigweed; experiment: Test A preemergence; type: in vivo, Amaranthus retroflexus; details: for Plant response rating, Pigweed: 125 g ai/ha, 0 to 100 scale where 0 is no effect and 100 is complete control; for Pigweed plant response rating: 500 g ai/ha, 0 to 100 scale, 0 no effect, 100 complete control, approx. 10 days
# Source text: as §3, §4
# [7] = tested on: corn; experiment: Test A postemergence; type: in vivo, Zea mays
# In short: as §2
# [8] = tested on: corn; experiment: Test A preemergence; type: in vivo, Zea mays; details: for Plant response rating, Corn: 125 g ai/ha, 0 to 100 scale where 0 is no effect and 100 is complete control; for Corn plant response rating: 500 g ai/ha, 0 to 100 scale, 0 no effect, 100 complete control, approx. 10 days
# Source text: as §3, §4
# [9] = tested on: velvetleaf; experiment: Test A postemergence; type: in vivo, Abutilon theophrasti
# Source text: as §3, §4
# [10] = tested on: sedge, umbrella; experiment: Test B flooded paddy test; type: in vivo, Cyperus difformis; details: Flood, 250 g ai/ha; 0 to 100 scale where 0 is no effect and 100 is complete control
# Description: as §1
# [11] = tested on: wheat; experiment: Test A preemergence; type: in vivo, Triticum aestivum; details: for Plant response rating, Wheat: 125 g ai/ha, 0 to 100 scale where 0 is no effect and 100 is complete control; for Wheat plant response rating: 500 g ai/ha, 0 to 100 scale, 0 no effect, 100 complete control, approx. 10 days
# In short: as §2
# [12] = tested on: pigweed; experiment: Test A postemergence; type: in vivo, Amaranthus retroflexus
# In short: as §2
# [13] = tested on: velvetleaf; experiment: Test A preemergence; type: in vivo, Abutilon theophrasti; details: for Plant response rating, Velvetleaf: 125 g ai/ha, 0 to 100 scale where 0 is no effect and 100 is complete control; for Velvetleaf plant response rating: 500 g ai/ha, 0 to 100 scale, 0 no effect, 100 complete control, approx. 10 days
# In short: as §2
# [14] = tested on: barnyardgrass; experiment: Test A postemergence; type: in vivo, Echinochloa crus-galli
# Source text: as §3, §4
# [15] = tested on: giant foxtail; experiment: Test A postemergence; type: in vivo, Setaria faberii
# In short: as §2
# [16] = tested on: giant foxtail; experiment: Test A preemergence; type: in vivo, Setaria faberii; details: for Plant response rating, Foxtail, Giant: 125 g ai/ha, 0 to 100 scale where 0 is no effect and 100 is complete control; for Foxtail, Giant plant response rating: 500 g ai/ha, 0 to 100 scale, 0 no effect, 100 complete control, approx. 10 days
# Source text: as §3, §4
# [17] = tested on: barnyardgrass; experiment: Test A preemergence; type: in vivo, Echinochloa crus-galli; details: for Plant response rating, Barnyardgrass: 125 g ai/ha, 0 to 100 scale where 0 is no effect and 100 is complete control; for Barnyardgrass plant response rating: 500 g ai/ha, 0 to 100 scale, 0 no effect, 100 complete control, approx. 10 days
# In short: as §2
# [18] = tested on: wheat; experiment: Test A postemergence; type: in vivo, Triticum aestivum
# In short: as §2
# [19] = tested on: morningglory; experiment: Test A preemergence; type: in vivo, Ipomoea spp.; details: for Plant response rating, Morningglory: 125 g ai/ha, 0 to 100 scale where 0 is no effect and 100 is complete control; for Morningglory plant response rating: 500 g ai/ha, 0 to 100 scale, 0 no effect, 100 complete control, approx. 10 days
# Source text: as §3, §4
# [20] = 125 g ai/ha, 0 to 100 scale where 0 is no effect and 100 is complete control
# [21] = 500 g ai/ha, 0 to 100 scale, 0 no effect, 100 complete control
SMILES,"Plant response rating, Ducksalad [1]","Plant response rating, Rice [2]","Plant response rating, Barnyardgrass [3]","Plant response rating, Crabgrass, Large [4, 20]","Plant response rating, Crabgrass, Large [4, 21]","Plant response rating, Crabgrass, Large [5]","Crabgrass, Large plant response rating [5]","Plant response rating, Pigweed [6]",Pigweed plant response rating [6],"Plant response rating, Corn [7, 20]","Plant response rating, Corn [7, 21]","Plant response rating, Corn [8]",Corn plant response rating [8],"Plant response rating, Velvetleaf [9, 20]","Plant response rating, Velvetleaf [9, 21]","Plant response rating, Sedge, Umbrella [10]","Plant response rating, Wheat [11]",Wheat plant response rating [11],"Plant response rating, Pigweed [12, 20]","Plant response rating, Pigweed [12, 21]",other results
Cc1ccn(-c2ccccc2Oc2ncc(Cl)cn2)n1 [Compound 36],0,0,0,0,10,0,70,0,20,0,0,0,0,20,70,0,0,0,0,20,"Plant response rating, Velvetleaf [13]: 0; Velvetleaf plant response rating [13]: 20; Plant response rating, Barnyardgrass [14, 20]: 0; Plant response rating, Barnyardgrass [14, 21]: 0; Plant response rating, Foxtail, Giant [15, 20]: 0; Plant response rating, Foxtail, Giant [15, 21]: 0; Plant response rating, Foxtail, Giant [16]: 0; Foxtail, Giant plant response rating [16]: 20; Plant response rating, Barnyardgrass [17]: 0; Barnyardgrass plant response rating [17]: 0; Plant response rating, Wheat [18, 20]: 0; Plant response rating, Wheat [18, 21]: 0"
Cc1nn(-c2ccccc2Oc2ncc(Cl)cn2)cc1Cl [Compound 39],50,0,0,0,10,10,90,0,0,0,10,0,0,20,30,30,0,0,10,40,"Plant response rating, Morningglory [19]: 0; Morningglory plant response rating [19]: 0; Plant response rating, Velvetleaf [13]: 10; Velvetleaf plant response rating [13]: 20; Plant response rating, Barnyardgrass [14, 20]: 0; Plant response rating, Barnyardgrass [14, 21]: 0; Plant response rating, Foxtail, Giant [15, 20]: 0; Plant response rating, Foxtail, Giant [15, 21]: 0; Plant response rating, Foxtail, Giant [16]: 10; Foxtail, Giant plant response rating [16]: 50; Plant response rating, Barnyardgrass [17]: 0; Barnyardgrass plant response rating [17]: 10; Plant response rating, Wheat [18, 20]: 0; Plant response rating, Wheat [18, 21]: 0"
Cc1nn(-c2ccccc2Oc2ncc(Cl)cn2)cc1Cl [Compound 38],0,0,0,0,10,0,40,0,0,0,0,0,0,10,20,30,0,0,0,10,"Plant response rating, Morningglory [19]: 0; Morningglory plant response rating [19]: 0; Plant response rating, Velvetleaf [13]: 0; Velvetleaf plant response rating [13]: 10; Plant response rating, Barnyardgrass [14, 20]: 0; Plant response rating, Barnyardgrass [14, 21]: 0; Plant response rating, Foxtail, Giant [15, 20]: 0; Plant response rating, Foxtail, Giant [15, 21]: 0; Plant response rating, Foxtail, Giant [16]: 0; Foxtail, Giant plant response rating [16]: 20; Plant response rating, Barnyardgrass [17]: 0; Barnyardgrass plant response rating [17]: 0; Plant response rating, Wheat [18, 20]: 0; Plant response rating, Wheat [18, 21]: 0"
